As a reminder, the inhibition is the change of the read-out against control, counted positive when it falls. The term bioavailability denotes dose-corrected exposure relative to a reference, in per cent. As usually defined, the EC50 is the concentration that produces a half-maximal response. A low value points to greater potency.

Data set [1] relates to DU145. Kind of data set: Synergy assay, 6 × 6 checkerboard, growth inhibition by resazurin, CI by CompuSyn. Conditions: Homo sapiens, DU-145, 72 h, three days. It is filed as cell-based. As to the method: Each plate contained 6 × 6 dose matrix blocks with several epidrug concentrations below and above each respective EC50 value. […] The combination index (CI) was calculated using CompuSyn software, where <1 indicates synergism, =1 is an additive effect and >1 indicates antagonism.
(Alamar Blue is a resazurin reagent that responds to reducing activity.)

For data set [2], the system named is LNCaP. Kind of data set: Colony formation assay. It is filed as cell-based, Human. Conditions: 3 days exposure, 10 additional days, Hydra 100 µM, Pano 5 nM.
The test system of data set [3] is DU145. Kind of data set: Invasion transwell assay. In kind it is cell-based, Human. Conditions: 24 h after seeding, Hydra 50 µM, Pano 5 nM, differences not statistically significant. As to the method:
(§1) Cell invasion and migration were determined using Falcon® Permeable Support for 24-well Plate with 8.0 µm Transparent PET Membrane (Corning, New York, NY, USA) and Nunc® Cell Culture Inserts in 24-well Nunclon Delta surface plate (Sigma-Aldrich, St. Louis, MO, USA), respectively. Briefly, cells were harvested after treatment and were added to the upper chamber in serum-free medium, according to its optimized density (2.5 × 10^4 cells for every cell line except from LNCaP and 22Rv1 with 5 × 10^4 cells). Media containing 10% FBS was added to the lower chamber. After 24 h incubation at 37 °C and 5% CO2, the cells remaining on the upper side of the membrane were removed with cotton swabs, and those on the lower surface of the membrane were fixed in methanol (Supelco, Sigma-Aldrich, St. Louis, MO, USA), washed in PBS 1 × and stained with Crystal Violet (Active motif, Carlsbad, CA, USA). All the inserts were photographed with stereomicroscope Olympus S2X16 using a digital camera Olympus SC180 (scale bar 1 mm) at 12.5 × magnification. Five fields within each insert were selected and photographed at 115 × and further counted using ImageJ software Cell Counter Plugin. The mean of the counted cells was calculated, divided by the area of the microscope viewing field and then multiplied by the entire area of the insert. Three biological replicates were used for each condition.

In data set [4] the test system is RWPE-1. Nature of the data set: Alkaline comet assay. In kind it is cell-based, Human. Conditions: Pano 10 nM. The source says: Three biological replicates were used for each condition.
Data set [5] concerns PC-3. Kind of data set: Colony formation assay. In kind it is cell-based, Human. Conditions: 3 days exposure, 7 additional days, Hydra 100 µM, Pano 10 nM. As to the method: (§2) PCa cells were seeded in 6-well culture plates at specific concentrations for each cell line, as detailed in Table S1. After epidrug exposure, cells were incubated at 37 °C and 5% CO2 for 7 days and 10 days (LNCaP). Next, colonies were fixed in methanol (Supelco, Sigma-Aldrich, St. Louis, MO, USA), washed in PBS 1 × and stained with Hemacolor Solution II and III (Sigma-Aldrich, St. Louis, MO, USA). Three biological and three experimental replicates were used for each condition.

Data set [6] has as its system DU145. Nature of the data set: Proliferation assay (BrdU ELISA). In kind it is cell-based, Human. Conditions: day 3, Hydra 50 µM, Pano 5 nM, alone or combined, compared with the vehicle.
Procedure: The cell proliferation ELISA BrdU (5-bromo-2′ deoxyuridine) assay (Roche Applied Sciences, Germany) was performed at 72 h of treatment. Cells were plated into 96-well plates at a density of 5000 cells per well, and at 0 h and 72 h of treatment, cells were incubated with 10 µM BrdU labeling solution for 8 h. After removing the culture medium, the cells were fixed with FixDenat solution for 30 min at room temperature. Then, the anti-BrdU-POD antibody (1:100) was added. After three washes with PBS 1 ×, the immune complexes were detected by the subsequent substrate reaction. The reaction product was quantified in a microplate reader (FLUOstar Omega, BMG Labtech, Ortenberg, Germany) at a wavelength of 450 nm with background subtraction at 690 nm. All ODs were normalized for the 0 h time point as well as to the vehicle. Three biological and three experimental replicates were used for each condition.
The conditions of data set [7]: cited from earlier work.
In data set [8] the test system is DU145. Kind of data set: Alkaline comet assay. It is filed as cell-based, Human. As to the method:
After epidrug exposure, 30,000 cells were harvested by trypsinization, washed in PBS, re-suspended in 0.5% low-melting point agarose (w/v) and immediately placed on a microscope slide previously covered with 1% normal-melting point agarose (w/v). Then, the cells were immersed in lysis solution (2.5 M NaCl, 100 mM Na2EDTA, 10 mM Tris Base and 1% Triton X-100, pH 10) at 4 °C during 2 h in the dark. Afterwards, the slides were incubated in an alkaline electrophoresis buffer (300 mM NaOH, 1 mM Na2EDTA, pH 13) for 40 min at 4 °C to allow DNA unwinding. Single cell gel electrophoresis was performed on a horizontal electrophoresis platform for 30 min at 21 V, 300 mA, 4 °C. Next, slides were incubated in a neutralization buffer (0.4 M Tris-Base, pH 7.5) for 10 min, followed by staining with DAPI. Comet analysis was done using OpenComet v.1.3.1. Global DNA damage (SSB and DSB) evaluation was determined by measuring tail moment (tail % DNA × means of head × tail distance) and representative pictures taken with Olympus IX51 microscope at 200 × magnification (scale bar 50 μm). A sampling of at least 50 comets was included in the analysis. Three biological replicates were used for each condition.

For a further data set, the system named is WPMY-1. Nature of the data set: Cell viability assay (resazurin), dose-response. It is filed as cell-based. Conditions: Homo sapiens, WPMY-1, 72 h, WPMY-1, day 3, resazurin. As to the method:
(§3) Briefly, PCa cell lines were seeded into 96-well plates at 5000 cells per well and incubated overnight at 37 °C in 5% CO2. Subsequently, cells were treated with a range of concentrations of each epidrug and their respective vehicle (dH2O for hydralazine; dimethyl sulfoxide (DMSO, Sigma-Aldrich, St. Louis, MO, USA) for panobinostat and culture medium for valproic acid) during three consecutive days, exchanging the medium every 24 h. Three experimental replicates of three biological replicates were used for each assay.
(§4) The cell viability was evaluated using resazurin (Canvax Biotech, Córdoba, Spain) at 0 h and 72 h of treatment. The culture medium was removed, and cells were incubated for three hours in the dark at 37 °C and 5% CO2 with 100 μL of 1:10 resazurin solution in culture medium. […] The OD values were corrected using resazurin solution as blank.

The subject of data set [9] is PC-3. Nature of the data set: Cell viability assay (resazurin), dose-response. In kind it is cell-based. Conditions: Homo sapiens, 72 h; PC-3, day 3, resazurin. As to the method:
as §3, §4

The subject of data set [10] is LNCaP. Nature of the data set: Cell viability assay (resazurin), dose-response. It is filed as cell-based. Conditions: Homo sapiens, 72 h, day 3, resazurin. As to the method:
as §3, §4

Another data set relates to 22Rv1. Kind of data set: Cell viability assay (resazurin), dose-response. It is filed as cell-based. Conditions: Homo sapiens, 22Rv1, 72 h, 22Rv1, day 3, resazurin. As to the method: as §3, §4
Data set [11] has as its system DU145. Nature of the data set: Cell viability assay (resazurin), dose-response. In kind it is cell-based. Conditions: Homo sapiens, DU-145, 72 h, DU145, day 3, resazurin. As to the method: as §3, §4
Data set [12] in a line: Clinical bioavailability and corresponding concentration at maximum clinical dose. In kind it is in vivo. Conditions: 200 mg/day.
The subject of data set [13] is PC-3. Conditions: 24 h after seeding, Hydra 100 µM, Pano 10 nM, differences not statistically significant. As to the method: as §1
The subject of data set [14] is DU145. Nature of the data set: Migration transwell assay. In kind it is cell-based, Human. Conditions: 24 h, Hydra 50 µM, Pano 5 nM, no significant differences. As to the method: as §1
Data set [15] relates to DU145. Conditions: 3 days exposure, 7 additional days, Hydra 50 µM, Pano 5 nM. As to the method:
as §2

Data set [16] relates to RWPE-1. Nature of the data set: Cell viability assay (resazurin), dose-response. It is filed as cell-based. Conditions: Homo sapiens, RWPE-1, 72 h, RWPE-1, day 3, resazurin. As to the method:
as §3, with “assay. The cell viability was evaluated using resazurin ([…] Biotech, Córdoba, Spain) at 0 h and 72 h of treatment. The culture medium was removed, and cells were incubated for three hours in the dark at 37 °C and 5% CO2 with 100 μL of 1:10 resazurin solution in culture medium. […] The OD values were corrected using resazurin solution as blank.” for “assay.”

Structures are written as SMILES. Counter-ions that a name gives are not always drawn. Like-named read-outs stand apart in the source and are kept apart here.

Turning to `Cc1[nH]c2ccccc2c1CCNCc1ccc(/C=C/C(=O)NO)cc1` [Panobinostat], the inhibition at 0.005 µM in the data set on DU145 [1] (panobinostat alone at the selected concentration (5 nM, Table 1)) is 48.9%. Moreover, the colony formation result with LNCaP [2] and in the data set with PC-3 [5] was “showed a higher impact” each time. In the data set on DU145 [3], the “cell invasion (transwell)” value was “but not panobinostat, also reduced invasion”. Moreover, in the data set with RWPE-1 [4], the “tail moment (comet assay)” value is listed as “significantly increased”. Moreover, the “cell proliferation (BrdU incorporation)” value in the data set with DU145 [6] is given as “but not panobinostat, led to considerable proliferation inhibition”. Moreover, the bioavailability in data set [7] was 21.4%. Moreover, the “DNA damage (tail moment, comet assay)” value in the data set with DU145 [8] (DU145, Hydra 50 µM, Pano 5 nM, alone or combined) is recorded as “increased DNA damage”. For the same compound, the EC50 was 0.0241 µM with WPMY-1; 0.0289 µM with PC-3 [9]; 0.0247 µM with LNCaP [10]; 0.014 µM with 22Rv1; 0.00697 µM in the data set with DU145 [11].
Turning to `NNc1nncc2ccccc12` [Hydralazine, Hydralazine hydrochloride], in the data set with DU145 [1] (hydralazine alone at the selected concentration (50 µM, Table 1)), the inhibition at 50 µM was found to be 42.8%. The “cell invasion (transwell)” value with DU145 [3] was “reduced invasion”; in the data set on PC-3 [13], “two times higher than that of panobinostat”. Moreover, the “cell proliferation (BrdU incorporation)” value in the data set on DU145 [6] is “considerable proliferation inhibition”. Besides, the “concentration corresponding to the maximum clinically recommended dose” value is on record as roughly 0.2 M in data set [12] (bioavailability 16%, fast acetylators) and roughly 0.44 M in [12] (bioavailability 35%, slow acetylators). Moreover, the bioavailability in data set [7] (fast acetylators) was 16%; in [7] (slow acetylators), 35%. In addition, in the data set with DU145 [8], the “DNA damage (tail moment, comet assay)” value is on record as “increased DNA damage”. Also, the concentration giving a half-maximal response (EC50) with PC-3 [9] amounted to 143 µM; in the data set on LNCaP [10], 87.5 µM; with 22Rv1, 73.1 µM; in the data set with DU145 [11], 50 µM. The “cell migration (transwell)” value in the data set with DU145 [14] is “reduced cell migration”. Further, the “colony formation (clonogenic capacity)” value in the data set on DU145 [15] was “almost no colonies were apparent”.
Regarding `CCCC(CCC)C(=O)O` [Valproic acid], the half-maximal effective concentration (EC50) in the data set with WPMY-1 was 4460 µM; in the data set with PC-3 [9], 8540 µM; in the data set with LNCaP [10] it was 2000 to 3000 µM; in the data set on 22Rv1 it was 2000 to 3000 µM; in the data set on DU145 [11] it was 2000 to 3000 µM; in the data set with RWPE-1 [16], 8970 µM.

The values above are taken from paper PMC8308508, “Hydralazine and Panobinostat Attenuate Malignant Properties of Prostate Cancer Cell Lines” (Pharmaceuticals, 2021).
